# Measurements taken from paper PMC7466040, “Sevanol and Its Analogues: Chemical Synthesis, Biological Effects and Molecular Docking” (Pharmaceuticals, 2020).
# How the values were obtained:
# ASIC1a = system: ASIC1a; parameters: method as in PMID 25196733; settings: cited from earlier work
# ASIC currents = system: ASIC currents; parameters: method as in PMID 16061325; settings: read-out: IC50, non-selective inhibition of ASIC currents; cited from earlier work
# [1] = system: all of the functional isoforms of ASICs; parameters: method as in PMID 9261094; settings: read-out: IC50, inhibition of ASICs; cited from earlier work
# rat ASIC3 = target: T1, rat ASIC3 (Rattus norvegicus, UniProt O35240); assay: Two-electrode voltage clamp on X. laevis oocytes expressing rat ASIC3; format: cell-based; settings: for IC50: X. laevis oocytes, pH drop 7.4 to 5.5, holding potential −50 mV, mean ± SEM of 5–6, read-out: IC50, inhibition of ASIC3 current; for maximal current block, ASIC3: effect reversible
# T1 construct: expressed in transfected cells; host or cells: Xenopus laevis oocytes (cRNA injection)
# T1 sequence (O35240 1-533): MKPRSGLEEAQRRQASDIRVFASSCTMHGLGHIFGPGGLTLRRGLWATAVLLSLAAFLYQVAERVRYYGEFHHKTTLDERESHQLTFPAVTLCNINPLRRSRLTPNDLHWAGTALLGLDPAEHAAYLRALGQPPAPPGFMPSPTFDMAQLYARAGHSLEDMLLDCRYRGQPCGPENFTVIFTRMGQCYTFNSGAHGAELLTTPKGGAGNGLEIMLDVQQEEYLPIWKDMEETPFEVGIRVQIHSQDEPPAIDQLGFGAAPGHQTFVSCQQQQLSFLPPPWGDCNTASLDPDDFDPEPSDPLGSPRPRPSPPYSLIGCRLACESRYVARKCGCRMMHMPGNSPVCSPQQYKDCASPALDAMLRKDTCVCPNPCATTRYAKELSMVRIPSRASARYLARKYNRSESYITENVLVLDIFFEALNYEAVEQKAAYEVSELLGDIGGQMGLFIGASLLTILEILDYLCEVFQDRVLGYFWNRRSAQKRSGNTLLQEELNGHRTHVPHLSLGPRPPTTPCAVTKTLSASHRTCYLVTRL
# Experimental: (§1) Testing the activity of synthetic sevanol (s706) (as a mixture of 75% of sevanol and 25% of isosevanol) and its analogues (s590, EA, and s788) was carried out by the standard two-electrode voltage clamp method on X. laevis oocytes expressing rat ASIC1a and ASIC3 channels. The activation of the channels was performed using a rapid change of the solution from conditioning pH 7.4 to a solution with pH 5.5. Sevanol and its two analogues, s590 and EA, inhibited ASIC1a and ASIC3 channels.
# (§2) Oocytes were harvested from female frogs anaesthetized with tricaine methane sulfonate (MS222) (0.17% solution), and the surgery was performed in an ice bath to avoid heavy bleeding. Defolliculated stage IV and V cells were injected with 2.5 and 10 ng cRNA, synthesized from PCi plasmids containing the rat ASIC1a and rat ASIC3 isoforms, respectively, using the Nanoliter 2000 microinjection system (World Precision Instruments, USA). The injected oocytes were kept for 2–3 days at 17 to 19 °C, and then for up to 5 days at 15 °C in a ND96 medium containing (in mM) 96 NaCl, 2 KCl, 1.8 CaCl2, 1 MgCl2, and 5 HEPES titrated to pH 7.4 with NaOH supplemented with gentamycin (50 μg/mL). Two-electrode voltage clamp recordings were performed at a holding potential of −50 mV using a GeneClamp 500 amplifier (Axon Instruments), and the data were filtered at 20 Hz and digitized at 100 Hz by an AD converter L780 (LCard, Russia). Microelectrodes were filled with 3 M KCl. The conditioning bath solution was ND96; the pH was adjusted to 7.4. The activating test solution was constructed based on the ND-96 buffer, in which 5 mM HEPES was replaced with 10 mM MES and pH was adjusted to 5.5. A computer-controlled valve system was used to achieve a rapid solution exchange in the recording chamber. A four parameter logistic equation was used for the curve-fitting analysis: F(x) = ((a1 − a2)/(1 + (x/x0)n)) + a2, where x is the concentration of the compound; F(x) is the response value at a given concentration of the compound; a1 is the control response value (fixed at 100%); x0 is the IC50 value; n is the Hill coefficient (slope factor); and a2 is the response value at the maximal inhibition (% of control).
# (§3) Figure 2 The inhibitory activity of sevanol (s706) and its analogues. Currents were elicited by a drop from pH 7.4 to 5.5; the holding potential was −50 mV; (A,C) are dose–response curves for s706, s590 and EA inhibitory effects on ASIC1a and ASIC3 channels, respectively; (B,D) are reciprocal IC50 values for s706, s590 and EA inhibitory effects on ASIC1a and ASIC3 channels, respectively. The data were fitted by the logistic equation. Each point is the mean ± SEM of 5–6 measurements. * p < 0.05, ** p < 0.005.
# rat ASIC1a = target: T2, rat ASIC1a (Rattus norvegicus, UniProt P55926); assay: Two-electrode voltage clamp on X. laevis oocytes expressing rat ASIC1a; format: cell-based; settings: for IC50: X. laevis oocytes, pH drop 7.4 to 5.5, holding potential −50 mV, mean ± SEM of 5–6, read-out: IC50, inhibition of ASIC1a current; for maximal current block, ASIC1a: effect reversible
# T2 construct: expressed in transfected cells; host or cells: Xenopus laevis oocytes (cRNA injection)
# T2 sequence (P55926 1-526): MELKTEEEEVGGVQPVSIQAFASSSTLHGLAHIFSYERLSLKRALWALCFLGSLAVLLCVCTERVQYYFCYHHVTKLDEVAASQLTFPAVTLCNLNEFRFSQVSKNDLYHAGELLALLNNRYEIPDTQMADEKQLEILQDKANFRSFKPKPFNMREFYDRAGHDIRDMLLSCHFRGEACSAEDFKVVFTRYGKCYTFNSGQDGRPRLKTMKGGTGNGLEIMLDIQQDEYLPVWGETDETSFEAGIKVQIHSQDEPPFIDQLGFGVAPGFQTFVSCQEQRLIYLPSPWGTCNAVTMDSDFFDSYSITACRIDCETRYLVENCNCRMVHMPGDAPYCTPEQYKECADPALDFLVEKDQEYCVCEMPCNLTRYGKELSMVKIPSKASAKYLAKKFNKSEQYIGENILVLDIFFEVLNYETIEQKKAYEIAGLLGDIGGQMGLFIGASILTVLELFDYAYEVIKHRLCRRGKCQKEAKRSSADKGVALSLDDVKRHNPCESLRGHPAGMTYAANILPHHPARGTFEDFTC
# Experimental: as §1, §2, §3
# [2] = system: ASIC3-containing channels; parameters: method as in PMID 11588175; settings: read-out: IC50, inhibition of ASIC3-containing channels; cited from earlier work
# [3] = system: ASIC1a-containing channels; parameters: method as in PMID 11588175; settings: read-out: IC50, inhibition of ASIC1a-containing channels; cited from earlier work
compound,measurement,setting,value
Nc1c2ccccc2nc2ccccc12 [9-aminoacridine],inhibition of ASIC1a,ASIC1a,inhibit ASIC1a in submillimolar concentrations
CC(C)C1c2cc(C3CC3c3ccc4cc(C(=N)N)ccc4c3)ccc2CCN1C (stereo not shown) [A-317567],IC50,ASIC currents,2 to 30 µM
N=C(N)NC(=O)c1nc(Cl)c(N)nc1N [Amiloride],IC50,[1],10 to 60 µM
"O=C(O)C1=Cc2cc(O)c(O)cc2[C@@H](c2ccc(O)c(O)c2)[C@@H]1C(=O)O [EA, epiphyllic acid]",IC50,rat ASIC3,424 ± 33 µM
same,"maximal current block, ASIC3",rat ASIC3; pH 7.4 to 5.5,100%
same,effectiveness in inhibiting ASIC3 relative to ASIC1a,rat ASIC3; ratio of ASIC1a and ASIC3 inhibition,acted equally on the ASIC1a and ASIC3 channels
same,IC50,rat ASIC1a,415 ± 66 µM
same,"maximal current block, ASIC1a",rat ASIC1a; pH 7.4 to 5.5,100%
CC(=O)Oc1ccccc1C(=O)O [aspirin],IC50,[2],260 µM
O=C(O)Cc1ccccc1Nc1c(Cl)cccc1Cl [diclofenac],IC50,[2],92 µM
CC(C(=O)O)c1ccc(-c2ccccc2)c(F)c1 (stereo not shown) [flurbiprofen],IC50,[3],350 µM
CC(C)Cc1ccc(C(C)C(=O)O)cc1 (stereo not shown) [ibuprofen],IC50,[3],350 µM
CC12CC3CC(C)(C1)CC(N)(C3)C2 [memantine],inhibition of ASIC1a,ASIC1a,inhibit ASIC1a in submillimolar concentrations
"O=C(O)CC(OC(=O)C1=Cc2cc(O)c(O)cc2C(c2ccc(O)c(O)c2)C1C(=O)OC(CC(=O)O)C(=O)O)C(=O)O (stereo not shown) [s590, 2,2′-((1-(3,4-dihydroxyphenyl)-6,7-dihydroxy-1,2-dihydronaphthalene-2,3-dicarbonyl)bis(oxy))disuccinic acid]",IC50,rat ASIC3,241 ± 25 µM
same,"maximal current block, ASIC3",rat ASIC3; pH 7.4 to 5.5,100%
same,IC50,rat ASIC1a,297 ± 41 µM
same,"maximal current block, ASIC1a",rat ASIC1a; pH 7.4 to 5.5,100%
"COC(=O)CC(C(=O)OC)C(OC(=O)C1=Cc2cc(O)c(O)cc2C(c2ccc(O)c(O)c2)C1C(=O)OC(C(=O)OC)C(CC(=O)OC)C(=O)OC)C(=O)OC (stereo not shown) [s788, Hexamethyl1,1′-((1-(3,4-dihydroxyphenyl)-6,7-dihydroxy-1,2-dihydronaphthalene-2,3-dicarbonyl)bis(oxy))bis(propane-1,2,3-tricarboxylate)]",activity on ASIC3 channel,rat ASIC3; pH 7.4 to 5.5,did not demonstrate any activity
same,activity on ASIC1a channel,rat ASIC1a; pH 7.4 to 5.5,did not demonstrate any activity
